Measured values taken from PubChem BioAssay AID256 (DTP/NCI, 2004).
“And” between values parts separate entries of the source, which are not always exact repeats. Equal values may be shown once. Inconclusive results and toxic doses are left out.

Test system: CD2F1 mice, L1210 leukemia ip, survival T/C
Assay: NCI In Vivo Anticancer Drug Screen. Data for tumor model L1210 Leukemia (intraperitoneal) in CD2F1 (CDF1) mice
Settings: higher = longer survival
Method in brief: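 In this screen, transplantable tumors were grown in mice given either the compound or its vehicle. Results were expressed as the treated measurement relative to the control measurement.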

`Cc1cc(NCCCCCCNc2cc(C)nc3ccc(N)cc23)c2cc(N)ccc2n1` was tested, and the T/C (endpoint: mean survival time, dose: 6.25 mg/kg/injection, schedule: Q01DX009 (ip), vehicle: water) was 122 % of control, the T/C (endpoint: mean survival time, dose: 6.4 mg/kg/injection, schedule: Q08HX009 (ip), vehicle: water) was 121 % of control and the T/C (endpoint: mean survival time, dose: 7.2 mg/kg/injection, schedule: Q01DX009 (ip), vehicle: saline with Tween-80) was 115 % of control. The T/C (endpoint: mean survival time, dose: 7.4 mg/kg/injection, schedule: Q01DX009 (ip), vehicle: saline with Tween-80) was 120 % of control, the T/C (endpoint: mean survival time, dose: 7.6 mg/kg/injection, schedule: Q08HX006 (iv), vehicle: saline with Tween-80) was 101 % of control and the T/C (endpoint: mean survival time, dose: 7.6 mg/kg/injection, schedule: Q08HX009 (iv), vehicle: saline with Tween-80) was 89 % of control. The T/C (endpoint: mean survival time, dose: 8.2 mg/kg/injection, schedule: Q01DX009 (sc), vehicle: saline with Tween-80) was 98 % of control, the T/C (endpoint: mean survival time, dose: 9.0 mg/kg/injection, schedule: Q01DX009 (ip), vehicle: saline) was 121 % of control and the T/C (endpoint: mean survival time, dose: 9.4 mg/kg/injection, schedule: Q01DX009 (ip), vehicle: water) was 118 % of control. For the same molecule, the T/C (endpoint: mean survival time, dose: 10.9 mg/kg/injection, schedule: Q01DX009 (sc), vehicle: saline with Tween-80) was 98 % of control, the T/C (endpoint: mean survival time, dose: 12.8 mg/kg/injection, schedule: Q01DX009 (ip), vehicle: saline with Tween-80) was 115 % of control and the T/C (endpoint: mean survival time, dose: 14.5 mg/kg/injection, schedule: Q01DX009 (ip), vehicle: saline with Tween-80) was 156 % of control. For the same molecule, the T/C (endpoint: mean survival time, dose: 15.3 mg/kg/injection, schedule: Q08HX009 (iv), vehicle: saline with Tween-80) was 89 % of control, the T/C (endpoint: mean survival time, dose: 19.0 mg/kg/injection, schedule: Q01DX009 (sc), vehicle: water) was 113 % of control and the T/C (endpoint: mean survival time, dose: 19.4 mg/kg/injection, schedule: Q01DX005 (iv), vehicle: saline with Tween-80) was 118 % of control and 119 % of control. For the same molecule, the T/C (endpoint: mean survival time, dose: 19.4 mg/kg/injection, schedule: Q01DX009 (ip), vehicle: saline with Tween-80) was 165 % of control, the T/C (endpoint: mean survival time, dose: 19.4 mg/kg/injection, schedule: Q01DX009 (sc), vehicle: saline with Tween-80) was 115 % of control and the T/C (endpoint: mean survival time, dose: 19.6 mg/kg/injection, schedule: Q08HX009 (ip), vehicle: saline with Tween-80) was 151 % of control. For the same molecule, the T/C (endpoint: mean survival time, dose: 22.7 mg/kg/injection, schedule: Q01DX009 (ip), vehicle: saline with Tween-80) was 118 % of control, the T/C (endpoint: mean survival time, dose: 25.0 mg/kg/injection, schedule: Q01DX009 (ip), vehicle: water) was 109 % of control and the T/C (endpoint: mean survival time, dose: 25.3 mg/kg/injection, schedule: Q01DX009 (ip), vehicle: water) was 160 % of control. For the same molecule, the T/C (endpoint: mean survival time, dose: 25.3 mg/kg/injection, schedule: Q01DX009 (sc), vehicle: water) was 115 % of control, the T/C (endpoint: mean survival time, dose: 25.8 mg/kg/injection, schedule: Q01DX005 (iv), vehicle: saline with Tween-80) was 117 % of control and 120 % of control and the T/C (endpoint: mean survival time, dose: 25.8 mg/kg/injection, schedule: Q01DX009 (ip), vehicle: saline with Tween-80) was 166 % of control. The T/C (endpoint: mean survival time, dose: 25.8 mg/kg/injection, schedule: Q01DX009 (sc), vehicle: saline with Tween-80) was 123 % of control, the T/C (endpoint: mean survival time, dose: 29.4 mg/kg/injection, schedule: Q01DX009 (ip), vehicle: saline with Tween-80) was 171 % of control and the T/C (endpoint: mean survival time, dose: 30.6 mg/kg/injection, schedule: Q08HX009 (iv), vehicle: saline with Tween-80) was 95 % of control. For the same molecule, the T/C (endpoint: mean survival time, dose: 33.8 mg/kg/injection, schedule: Q01DX009 (sc), vehicle: water) was 124 % of control, the T/C (endpoint: mean survival time, dose: 34.4 mg/kg/injection, schedule: Q01DX005 (iv), vehicle: saline with Tween-80) was 116 % of control and 123 % of control and the T/C (endpoint: mean survival time, dose: 34.4 mg/kg/injection, schedule: Q01DX009 (ip), vehicle: saline with Tween-80) was 167 % of control. For the same molecule, the T/C (endpoint: mean survival time, dose: 34.4 mg/kg/injection, schedule: Q01DX009 (sc), vehicle: saline with Tween-80) was 124 % of control, the T/C (endpoint: mean survival time, dose: 39.2 mg/kg/injection, schedule: Q08HX009 (ip), vehicle: saline with Tween-80) was 165 % of control and the T/C (endpoint: mean survival time, dose: 40.4 mg/kg/injection, schedule: Q01DX009 (ip), vehicle: saline with Tween-80) was 123 % of control. For the same molecule, the T/C (endpoint: mean survival time, dose: 45.9 mg/kg/injection, schedule: Q01DX009 (ip), vehicle: saline with Tween-80) was 171 % of control, the T/C (endpoint: mean survival time, dose: 58.8 mg/kg/injection, schedule: Q01DX009 (ip), vehicle: saline with Tween-80) was 185 % of control and the T/C (endpoint: mean survival time, dose: 71.8 mg/kg/injection, schedule: Q01DX009 (ip), vehicle: saline with Tween-80) was 157 % of control. The T/C (endpoint: mean survival time, dose: 78.4 mg/kg/injection, schedule: Q08HX009 (ip), vehicle: saline with Tween-80) was 180 % of control, the T/C (endpoint: mean survival time, dose: 117.6 mg/kg/injection, schedule: Q01DX009 (ip), vehicle: saline with Tween-80) was 98 % of control and the T/C (endpoint: mean survival time, dose: 127.8 mg/kg/injection, schedule: Q01DX009 (ip), vehicle: saline with Tween-80) was 151 % of control. For the same molecule, the T/C (endpoint: mean survival time, dose: 150.0 mg/kg/injection, schedule: Q01DX009 (ip), vehicle: saline with Tween-80) was 168 % of control and 174 % of control, the T/C (endpoint: mean survival time, dose: 300.0 mg/kg/injection, schedule: Q01DX009 (ip), vehicle: saline with Tween-80) was 120 % of control and the T/C (endpoint: median survival time, dose: 0.78 mg/kg/injection, schedule: Q01DX009 (ip), vehicle: water) was 98 % of control. The T/C (endpoint: median survival time, dose: 1.56 mg/kg/injection, schedule: Q01DX009 (ip), vehicle: water) was 93 % of control, the T/C (endpoint: median survival time, dose: 3.12 mg/kg/injection, schedule: Q01DX009 (ip), vehicle: water) was 98 % of control and the T/C (endpoint: median survival time, dose: 6.25 mg/kg/injection, schedule: Q01DX009 (ip), vehicle: water) was 109 % of control. The T/C (endpoint: median survival time, dose: 12.5 mg/kg/injection, schedule: Q01DX009 (ip), vehicle: water) was 117 % of control.
